Reference: patent US10806726B2, “Methods of using indazole-3-carb oxamides and their use as Wnt/B-catenin signaling pathway inhibitors” (Samumed, LLC, priority 2016, dated 2020)

Tests used:
[1] = tested on: primary human mesenchymal stem cells (hMSCs); assay: Tenocyte differentiation screening in hMSCs (SCXA-positive cells, 4 days); format: cell-based; settings: 96 h, fold change over DMSO
Summary of the method: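 Primary hMSCs at passage 3–6 were treated with compound, fixed and immunostained for SCXA, and SCXA-positive cells per well were counted by imaging. Counts were normalized to DMSO wells as fold change, averaged over triplicates, and EC50 was fitted, with high-dose values manually corrected for solubility.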

[2] = tested on: Wnt-responsive promoter driving firefly luciferase in SW480 cells; assay: Wnt reporter (SP5 promoter-luciferase) screening assay in SW480 cells; format: cell-based; settings: Homo sapiens, 24-40 h, top concentration ten micromolar
Summary of the method: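 SW480 (APC-mutant colon) cells stably transduced with lentiviral SP5-promoter (eight TCF/LEF sites) firefly luciferase, ~10,000 cells/well. Signals normalized to DMSO controls for EC50 fitting.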

Row | SMILES | EC50 [1] | EC50 [2]
1 | O=C(Nc1ccc(-c2cccc(F)c2)nc1)c1n[nH]c2ccc(-c3cncc(CN4CCCCC4)c3)cc12 [compound 72, N-(6-(3-Fluorophenyl)pyridin-3-yl)-5-(5-(piperidin-1-ylmethyl)pyridin-3-yl)-1H-indazole-3-carboxamide] | > 100000 nM | 215 nM
2 | COc1ccc(-c2ccc3[nH]nc(C(=O)Nc4cccnc4)c3c2)cn1 [compound 54, 5-(6-Methoxypyridin-3-yl)-N-(pyridin-3-yl)-1H-indazole-3-carboxamide] | > 100000 nM | 158 nM
3 | O=C(Nc1cccnc1)c1n[nH]c2ccc(-c3cc(F)cc(CN4CCCCC4)c3)cc12 [compound 67, 5-(3-Fluoro-5-(piperidin-1-ylmethyl)phenyl)-N-(pyridin-3-yl)-1H-indazole-3-carboxamide] | > 100000 nM | ≥ 10000 nM
4 | Cn1nc(NC(=O)c2n[nH]c3ccc(-c4cccnc4)cc23)cc1C(F)(F)F [compound 37, N-(1-Methyl-5-(trifluoromethyl)-1H-pyrazol-3-yl)-5-(pyridin-3-yl)-1H-indazole-3-carboxamide] | > 100000 nM | 1120 nM
5 | O=C(Nc1cncc(F)c1)c1n[nH]c2ccc(-c3cncc(CN4CCCCC4)c3)cc12 [compound 168, N-(5-Fluoropyridin-3-yl)-5-(5-(piperidin-1-ylmethyl)pyridin-3-yl)-1H-indazole-3-carboxamide] | > 100000 nM | 66 nM
6 | O=C(Nc1ccc(N2CCCC2)nc1)c1n[nH]c2ccc(-c3cncc(CN4CCCCC4)c3)cc12 [compound 71, 5-(5-(Piperidin-1-ylmethyl)pyridin-3-yl)-N-(6-(pyrrolidin-1-yl)pyridin-3-yl)-1H-indazole-3-carboxamide] | > 100000 nM | 25 nM

Now from value to molecule:

Row | EC50 [1] | EC50 [2] | SMILES
7 | > 100000 nM | 120 nM | O=C(Nc1cncc(F)c1)c1n[nH]c2ccc(-c3cccnc3)cc12 [compound 23, N-(5-Fluoropyridin-3-yl)-5-(pyridin-3-yl)-1H-indazole-3-carboxamide]
8 | > 100000 nM | 1200 nM | CN(C)Cc1cncc(-c2ccc3[nH]nc(C(=O)Nc4ccc(N5CCCC5)nc4)c3c2)c1 [compound 190, 5-(5-((Dimethylamino)methyl)pyridin-3-yl)-N-(6-(pyrrolidin-1-yl)pyridin-3-yl)-1H-indazole-3-carboxamide]
9 | 4650 nM | 30 nM | Nc1ncc(NC(=O)c2n[nH]c3ccc(-c4cncc(CN5CCCCC5)c4)cc23)cn1 [compound 176, N-(2-Aminopyrimidin-5-yl)-5-(5-(piperidin-1-ylmethyl)pyridin-3-yl)-1H-indazole-3-carboxamide]
10 | 7660 nM | 6 nM | O=C(Nc1cccnc1)c1n[nH]c2ccc(-c3cncc(CN4CCOCC4)c3)cc12 [compound 64, 5-(5-(Morpholinomethyl)pyridin-3-yl)-N-(pyridin-3-yl)-1H-indazole-3-carboxamide]
11 | 35800 nM | ≥ 10000 nM | O=C(Nc1cccnc1)c1n[nH]c2ccc(-c3cncc(C(F)(F)F)c3)cc12 [compound 16, N-(pyridin-3-yl)-5-(5-(trifluoromethyl)pyridin-yl)-1H-indazole-3-carboxamide]
12 | > 100000 nM | 49 nM | O=C(Nc1ccc(N2CCCC2)nc1)c1n[nH]c2ccc(-c3cncc(CN4CCC(F)(F)C4)c3)cc12 [compound 183, 5-(5-((3,3-Difluoropyrrolidin-1-yl)methyl)pyridin-3-yl)-N-(6-(pyrrolidin-1-yl)pyridin-3-yl)-1H-indazole-3-carboxamide]
13 | 25100 nM | 158 nM | CCOc1ccc(NC(=O)c2n[nH]c3ccc(-c4cncc(CN5CCCC5)c4)cc23)cn1 [compound 44, N-(6-Ethoxypyridin-3-yl)-5-(5-(pyrrolidin-1-ylmethyl)pyridin-3-yl)-1H-indazole-3-carboxamide]
14 | 8120 nM | 67 nM | O=C(Nc1cccnc1)c1n[nH]c2ccc(-c3cncc(NC(=O)C4CC4)c3)cc12 [compound 41, 5-(5-(Cyclopropanecarboxamido)pyridin-3-yl)-N-(pyridin-3-yl)-1H-indazole-3-carboxamide]
